Data: ChEMBL document CHEMBL5154833, “New N-aryl-N'-aryl-/(thio)ureido-/sulfamoylamino-derivatives of alkyl/alkylcarbamoyl piperazines: Effect of structural modifications on selectivity over 5-HT1A receptor” (Eur J Med Chem, 2022)
pKi: −log10 of the molar value.

Key:
D(2) dopamine receptor [1] = target: T1, D(2) dopamine receptor (Homo sapiens, UniProt P14416); experiment: Displacement of [3H]-raclopride from human full length D2L receptor expressed in HEK293 cells by radioligand binding assay; format: cell-based
[2] = target: 5-hydroxytryptamine receptor 2A (Homo sapiens, UniProt P28223); experiment: Displacement of [3H]-ketanserin from 5-HT2AR (unknown origin) expressed in CHO-K1 cells by radioligand binding assay; format: cell-based
[3] = target: T2, 5-hydroxytryptamine receptor 6 (Homo sapiens, UniProt P50406); experiment: Displacement of [3H]-LSD from human full length 5HT6R expressed in HEK293 cells by radioligand binding assay; format: cell-based
[4] = target: T3, 5-hydroxytryptamine receptor 1A (Homo sapiens, UniProt P08908); experiment: Displacement of [3H]-[…] from human full length 5-HT1AR expressed in HEK293 cells by radioligand binding assay; format: cell-based
T3 sequence (P08908 whole entry): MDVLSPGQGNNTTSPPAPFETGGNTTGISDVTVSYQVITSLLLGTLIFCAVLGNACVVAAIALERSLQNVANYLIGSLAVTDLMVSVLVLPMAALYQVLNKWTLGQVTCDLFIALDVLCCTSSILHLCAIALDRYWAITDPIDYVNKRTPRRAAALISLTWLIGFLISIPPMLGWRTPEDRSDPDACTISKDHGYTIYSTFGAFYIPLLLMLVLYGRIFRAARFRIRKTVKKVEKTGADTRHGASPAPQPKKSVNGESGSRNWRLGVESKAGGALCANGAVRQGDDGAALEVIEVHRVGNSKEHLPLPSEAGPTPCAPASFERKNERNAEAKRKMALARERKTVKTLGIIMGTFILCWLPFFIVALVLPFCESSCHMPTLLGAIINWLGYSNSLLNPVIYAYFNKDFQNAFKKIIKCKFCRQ

[5] = target: 5-hydroxytryptamine receptor 7 (Homo sapiens, UniProt P34969); experiment: Displacement of [3H]-5-CT from human full length 5HT7BR expressed in HEK293 cells by radioligand binding assay; format: cell-based
Homo sapiens = organism: Homo sapiens; experiment: Selectivity ratio of Ki for human full length D2L receptor expressed in HEK293 cells to Ki for human full length 5-HT1AR expressed in HEK293 cells; format: cell-based
[6] = target: T4, 5-hydroxytryptamine receptor 1A (Homo sapiens) (UniProt P08908); experiment: Binding affinity to human full length 5-HT1AR expressed in HEK293 cells by Cheng-Prusoff equation analysis; format: cell-based; conditions: filed as antagonist
T4 sequence (whole entry): T3 sequence (P08908 whole entry)

[7] = Permeability coefficient of the compound in PBS buffer at pH 7.4 incubated for 5 hrs by PAMPA-based LC-MS analysis; format: ADME; conditions: read-out: Kp
[8] = target: T3, 5-hydroxytryptamine receptor 1A; experiment: Binding affinity to 5-HT1AR (unknown origin) assessed as inhibition constant
[9] = target: T2, 5-hydroxytryptamine receptor 6; experiment: Binding affinity to 5-HT6R (unknown origin) assessed as inhibition constant
D(2) dopamine receptor [10] = target: T1, D(2) dopamine receptor; experiment: Binding affinity to D2L receptor (unknown origin) assessed as inhibition constant
[11] = Metabolic stability in mouse liver microsomes assessed as parent compound remaining at 50 uM measured after 120 mins by UPLC-MS analysis; format: ADME, Microsome; conditions: read-out: Stability
CYP3A4 = CYP3A4 (Homo sapiens, UniProt P08684); experiment: Inhibition of CYP3A4 (unknown origin) at 10 uM by luminescence based Glo assay; format: ADME; conditions: CYP3A4 enzyme (unknown origin)
[12] = Hepatotoxicity in human HepG2 cells assessed as reduction in cell viability at 50 to 100 uM incubated for 72 hrs by MTS assay; format: toxicity, cell-based; conditions: hepg2, 72 h, dose 50-100 µM
[13] = Hepatotoxicity in human HepG2 cells at 1 to 10 uM incubated for 72 hrs by MTS assay; format: toxicity, cell-based; conditions: hepg2, 72 h, dose 1-10 µM
[14] = target: T3, 5-hydroxytryptamine receptor 1A; experiment: Displacement of [3H]-[…] from human 5-HT1AR in human brain tissue by radioligand binding assay; format: tissue-based

T1 sequence (P14416 whole entry): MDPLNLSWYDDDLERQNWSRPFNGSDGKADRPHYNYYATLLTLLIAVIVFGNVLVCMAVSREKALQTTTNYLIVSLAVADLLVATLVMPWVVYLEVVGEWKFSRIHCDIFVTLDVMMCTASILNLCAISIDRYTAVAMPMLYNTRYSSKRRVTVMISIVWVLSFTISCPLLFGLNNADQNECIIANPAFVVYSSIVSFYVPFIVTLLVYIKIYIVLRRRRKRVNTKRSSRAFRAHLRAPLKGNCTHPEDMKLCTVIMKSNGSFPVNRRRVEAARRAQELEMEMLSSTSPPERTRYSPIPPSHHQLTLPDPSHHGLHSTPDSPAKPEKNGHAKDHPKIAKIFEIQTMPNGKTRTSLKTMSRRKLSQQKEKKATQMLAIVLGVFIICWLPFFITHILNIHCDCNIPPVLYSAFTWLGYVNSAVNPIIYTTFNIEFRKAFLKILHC
5-hydroxytryptamine receptor 7, sequence (P34969 whole entry): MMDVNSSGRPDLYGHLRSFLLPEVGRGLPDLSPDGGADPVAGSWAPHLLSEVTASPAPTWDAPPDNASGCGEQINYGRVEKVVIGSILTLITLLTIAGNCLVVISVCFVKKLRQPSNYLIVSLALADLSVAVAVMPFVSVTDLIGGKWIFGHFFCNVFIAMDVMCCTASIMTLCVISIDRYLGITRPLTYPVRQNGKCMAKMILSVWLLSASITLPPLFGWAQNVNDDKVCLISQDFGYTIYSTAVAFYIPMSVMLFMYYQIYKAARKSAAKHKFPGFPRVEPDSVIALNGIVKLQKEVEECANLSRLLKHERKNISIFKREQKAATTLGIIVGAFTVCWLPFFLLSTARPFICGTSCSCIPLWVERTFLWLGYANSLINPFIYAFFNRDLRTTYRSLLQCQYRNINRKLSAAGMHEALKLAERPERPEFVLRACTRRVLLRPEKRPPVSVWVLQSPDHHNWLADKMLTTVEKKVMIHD
T2 sequence (P50406 whole entry): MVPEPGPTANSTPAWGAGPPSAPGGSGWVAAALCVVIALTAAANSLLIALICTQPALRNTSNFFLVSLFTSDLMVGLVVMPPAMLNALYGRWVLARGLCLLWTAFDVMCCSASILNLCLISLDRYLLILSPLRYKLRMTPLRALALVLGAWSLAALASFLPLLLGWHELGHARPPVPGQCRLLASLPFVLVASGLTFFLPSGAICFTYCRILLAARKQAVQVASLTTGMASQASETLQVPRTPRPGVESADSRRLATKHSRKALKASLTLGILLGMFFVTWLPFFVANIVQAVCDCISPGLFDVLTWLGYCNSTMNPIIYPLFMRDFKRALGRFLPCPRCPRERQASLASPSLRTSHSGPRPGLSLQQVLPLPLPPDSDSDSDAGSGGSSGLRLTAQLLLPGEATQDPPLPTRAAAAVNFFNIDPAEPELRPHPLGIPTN
5-hydroxytryptamine receptor 2A, sequence (P28223 whole entry): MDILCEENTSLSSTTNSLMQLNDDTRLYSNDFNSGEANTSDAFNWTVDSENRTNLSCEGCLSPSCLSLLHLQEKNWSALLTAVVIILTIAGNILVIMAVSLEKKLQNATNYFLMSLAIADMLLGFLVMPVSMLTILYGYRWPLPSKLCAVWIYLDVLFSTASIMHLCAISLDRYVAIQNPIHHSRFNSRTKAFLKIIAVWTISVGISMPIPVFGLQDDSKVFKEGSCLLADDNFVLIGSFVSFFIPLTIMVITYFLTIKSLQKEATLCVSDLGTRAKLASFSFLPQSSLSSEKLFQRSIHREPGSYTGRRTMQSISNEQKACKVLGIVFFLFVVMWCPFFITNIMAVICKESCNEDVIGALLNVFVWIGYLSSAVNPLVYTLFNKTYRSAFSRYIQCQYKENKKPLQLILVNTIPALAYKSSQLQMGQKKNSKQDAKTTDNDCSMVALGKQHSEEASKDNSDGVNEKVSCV
CYP3A4, sequence (P08684 whole entry): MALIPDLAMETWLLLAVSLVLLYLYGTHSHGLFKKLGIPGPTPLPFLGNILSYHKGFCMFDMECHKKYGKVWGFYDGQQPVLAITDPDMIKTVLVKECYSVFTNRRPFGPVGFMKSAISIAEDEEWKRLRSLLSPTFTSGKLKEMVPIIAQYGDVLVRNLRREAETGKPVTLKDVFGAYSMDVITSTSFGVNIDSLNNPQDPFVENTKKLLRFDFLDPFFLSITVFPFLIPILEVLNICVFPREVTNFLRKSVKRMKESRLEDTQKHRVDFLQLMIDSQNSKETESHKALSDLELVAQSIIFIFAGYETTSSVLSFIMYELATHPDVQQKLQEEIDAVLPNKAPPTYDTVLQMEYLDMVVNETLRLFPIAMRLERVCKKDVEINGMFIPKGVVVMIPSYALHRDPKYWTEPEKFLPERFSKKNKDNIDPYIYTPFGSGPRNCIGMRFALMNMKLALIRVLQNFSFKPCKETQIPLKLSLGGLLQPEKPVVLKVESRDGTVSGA

## O=c1n(CCCCCCN2CCN(c3cccc4ccccc34)CC2)nc2ccccn12
D(2) dopamine receptor [1]
  pKi: 7.49
[2]
  pKi: 6.65
[3]
  pKi: 6.55
[4]
  pKi: 8.22
[5]
  pKi: 6.73

## S=c1n(CCCCCCN2CCN(c3cccc(Cl)c3)CC2)c2cccc3c2n1CCC3
D(2) dopamine receptor [1]
  pKi: 7.07
[2]
  pKi: 6.59
[3]
  pKi: 6.24
[4]
  pKi: 6.69
[5]
  pKi: 6.77

## NC(=O)NCCCCCCN1CCN(c2cccc(Cl)c2)CC1
D(2) dopamine receptor [1]
  pKi: 6.63
[2]
  pKi: 6.71
[3]
  pKi: 5.31
[4]
  pKi: 7.41
[5]
  pKi: 6.74

## O=c1n(CCCCCCN2CCN(c3cccc(C(F)(F)F)c3)CC2)nc2ccccn12
D(2) dopamine receptor [1]
  pKi: 7.21
[2]
  pKi: 6.54
[3]
  pKi: 6.39
[4]
  pKi: 7.77
[5]
  pKi: 5.97

## O=c1n(CCCCCCN2CCN(c3cccc4c3OCCO4)CC2)nc2ccccn12
Homo sapiens
  Ratio Ki: 60
D(2) dopamine receptor [1]
  pKi: 7.22
[2]
  pKi: 6.36
[3]
  pKi: 5.55
[6]
  Kb: 2 nM
[4]
  pKi: 9.00
[5]
  pKi: 6.57

## O=c1n(Cc2ccc(CN3CCN(c4cccc(Cl)c4)CC3)cc2)nc2ccccn12
D(2) dopamine receptor [1]
  pKi: 6.83
[2]
  pKi: 5.97
[3]
  pKi: 5.94
[4]
  pKi: 7.28
[5]
  pKi: 5.46

## O=c1n(CCCCCCN2CCN(c3cccc(Cl)c3)CC2)c2cccc3c2n1CCC3
D(2) dopamine receptor [1]
  pKi: 7.74
[2]
  pKi: 7.18
[3]
  pKi: 5.94
[4]
  pKi: 7.13
[5]
  pKi: 7.21

## O=S1(=O)N(CCCCCCN2CCN(c3cccc(Cl)c3)CC2)c2cccc3c2N1CCC3
D(2) dopamine receptor [1]
  pKi: 6.60
[2]
  pKi: 6.55
[3]
  pKi: 5.77
[4]
  pKi: 7.15
[5]
  pKi: 6.79

## Cn1c(=O)c2c(ncn2C)n(C)c1=O [CAFFEINE]
[7]
  Papp at 5 h: 12.2 ×10⁻⁶ cm/s

## O=c1n(Cc2ccc(CN3CCN(c4ccc(Cl)cc4)CC3)cc2)nc2ccccn12
D(2) dopamine receptor [1]
  pKi: 5.86
[2]
  pKi: 5.84
[3]
  pKi: 5.67
[4]
  pKi: 6.33
[5]
  pKi: 3.70

## Clc1cccc(N2CCNCC2)c1 [CHLOROPHENYLPIPERAZINE]
[8]
  pKi: 7.38
[9]
  pKi: 5.76
D(2) dopamine receptor [10]
  pKi: < 5.00

## O=C(NCCCCCCn1nc2ccccn2c1=O)N1CCN(c2cccc(Cl)c2)CC1
[7]
  Papp at 5 h: 2.9 ×10⁻⁶ cm/s
Homo sapiens
  Ratio Ki: 55
D(2) dopamine receptor [1]
  pKi: 5.71
[2]
  pKi: 6.28
[3]
  pKi: 5.59
[11]
  remaining at 2 h, 50 µM: 0%
CYP3A4
  inhibition at 10 µM: 75%
[12]
  Activity: Toxic
[13]
  Activity: Non-Toxic
[4]
  pKi: 7.46
[5]
  pKi: 6.34

## NC(=O)N1CCN(c2cccc(Cl)c2)CC1
D(2) dopamine receptor [1]
  pKi: 3.94
[2]
  pKi: 4.49
[3]
  pKi: 5.13
[4]
  pKi: 5.15
[5]
  pKi: 4.64

## O=c1n(CCCCCCN2CCN(c3cccc4cccnc34)CC2)nc2ccccn12
D(2) dopamine receptor [1]
  pKi: 6.84
[2]
  pKi: 5.66
[3]
  pKi: 5.38
[6]
  Kb: 3.6 nM
[4]
  pKi: 8.52
[5]
  pKi: 6.18

## O=c1n(CC2CCC(CN3CCN(c4cccc(Cl)c4)CC3)CC2)nc2ccccn12 (stereo not given)
Homo sapiens
  Ratio Ki: 18
D(2) dopamine receptor [1]
  pKi: 6.25
[2]
  pKi: 6.31
[3]
  pKi: 5.34
[4]
  pKi: 7.51
[5]
  pKi: 6.59

## O=c1[nH]c2ccccc2n1CCN1CCN(c2cccc(C(F)(F)F)c2)CC1 [FLIBANSERIN]
[14]
  pKi: 7.93

## NS(=O)(=O)NCCCCCCN1CCN(c2cccc(Cl)c2)CC1
D(2) dopamine receptor [1]
  pKi: 6.64
[2]
  pKi: 6.48
[3]
  pKi: 5.82
[4]
  pKi: 7.68
[5]
  pKi: 6.78

## O=c1n(CCCCCCN2CCN(c3cccc(Cl)c3Cl)CC2)nc2ccccn12
D(2) dopamine receptor [1]
  pKi: 8.05
[2]
  pKi: 7.33
[3]
  pKi: 6.52
[4]
  pKi: 8.15
[5]
  pKi: 6.61
